In patent publication US11072628B2, “Nucleoside analogues for the treatment of parasitic infections” (UNIVERSITEIT GENT, priority 2017, dated 2021):
Where two headings read alike, the source gives them in different places.

Key:
MRC-5 fibroblasts = test: in vitro
Protocol: (§1) Cytotoxicity was assayed against MRC-5 fibroblasts. Results are depicted in Tables 4 and 5.

[1] = system: T. b. rhodesiense STIB-900; test: In vitro drug susceptibility, T. b. rhodesiense STIB-900 (resazurin); type: cell-based, Trypanosoma brucei rhodesiense
Protocol: (§2) All trypanosome strains were cultured in the standard HMI-9 medium supplemented with 10% fetal bovine serum (FBS) at 37° C. in a 5% CO2 atmosphere.

T. brucei Squib 427 = test: In vitro drug susceptibility, T. brucei Squib 427 (resazurin); type: cell-based, Trypanosoma brucei brucei
Protocol: as §2

[2] = system: T. cruzi Tulahuen CL2 β galactosidase strain; test: T. cruzi Tulahuen CL2 β galactosidase strain on MRC-5SV2 cells (CPRG); type: cell-based, Trypanosoma cruzi
Protocol: All cultures and assays were conducted at 37° C./5% CO2. […] The results were expressed as % reduction in parasite burdens compared to control wells from which an EC50 was calculated.

[3] = Cytotoxicity against MRC-5 fibroblasts; settings: human
Protocol: as §1

[4] = Table 1, average of 2-4 independent determinations, read-out: T. brucei rhod. EC50
[5] = Table 1, average of 2-4 independent determinations, read-out: T. brucei brucei EC50
[6] = Table 2, average of 2-3 independent replicates
[7] = MRC-5 fibroblasts, MRC-5 EC50, Table 4, cytotoxicity
[8] = MRC-5 fibroblasts, MRC-5 EC50, Table 5, cytotoxicity
[9] = Trypanosoma brucei, RHODESIENSE, read-out: T.b. rhod. EC50
[10] = Trypanosoma brucei, read-out: T.b. brucei EC50, Table 4, average of 2-6 independent determinations
[11] = Trypanosoma cruzi, TULAHUEN, MRC-5 SV2, Table 5, average of 2-4 independent replicates
[12] = MRC-5 fibroblasts, MRC-5 EC50, Table 1, cytotoxicity
[13] = MRC-5 fibroblasts, MRC-5 EC50, Table 2, cytotoxicity
[14] = Trypanosoma brucei, RHODESIENSE, read-out: T. brucei rhod. EC50
[15] = Trypanosoma brucei, read-out: T. brucei brucei EC50, Table 1, average of 2-4 independent determinations
[16] = Trypanosoma cruzi, TULAHUEN, MRC-5 SV2, Table 2, average of 2-3 independent replicates
[17] = Trypanosoma brucei, RHODESIENSE, Table 1, average of 2-4 independent determinations, read-out: T. brucei rhod. EC50
[18] = Trypanosoma brucei, Table 1, average of 2-4 independent determinations, read-out: T. brucei brucei EC50

Row | SMILES | EC50 [3, 7] [nM] | EC50 [3, 8] [nM] | EC50 [1, 9] [nM] | EC50 (T. brucei Squib 427; [10]) [nM] | EC50 [2, 11] [nM] | EC50 [1, 14] [nM] | EC50 (T. brucei Squib 427; [15]) [nM] | EC50 [2, 16] [nM] | also measured
1 | CSC[C@@H]1C[C@@H](O)[C@H](n2cc(Br)c3c(N)ncnc32)O1 [FH9527, 4-amino-5-bromo-N7-(3′-deoxy-5′-thiomethyl-β-D-ribofuranosyl)-pyrrolo[2,3-d]pyrimidine] |  |  |  |  |  |  |  |  | EC50 (MRC-5 fibroblasts): 15300 nM; EC50 [1, 4]: 22300 nM; EC50 (T. brucei Squib 427; [5]): 32500 nM; EC50 [2, 6]: 25000 nM
2 | CCOc1ncnc2c1c(Cl)cn2[C@@H]1O[C@H](CO)[C@@H](O)[C@H]1O [FH9529, 4-ethoxy-5-chloro-N7-(β-D-ribfuranosyl)-pyrrolo[2,3-d]pyrimidine] | 48500 | 48500 | 60 | 120 | 6290 |  |  |  | 
3 | COc1ncnc2c1c(Br)cn2[C@@H]1O[C@H](CO)C[C@H]1O [FH8497, 4-methoxy-5-bromo-N7-(3′-deoxy-β-D-ribofuranosyl)-pyrrolo[2,3-d]pyrimidine] |  |  |  |  |  |  |  |  | EC50 (MRC-5 fibroblasts): 2700 nM; EC50 [1, 4]: 3700 nM; EC50 (T. brucei Squib 427; [5]): 2620 nM; EC50 [2, 6]: > 64000 nM
4 | Nc1ncnc2c1c(Br)cn2[C@@H]1O[C@H](CO)C[C@@H]1O [FH10628, 4-amino-5-bromo-N7-(2′-arabino-3′-deoxy-β-D-ribofuranosyl)-pyrrolo[2,3-d]pyrimidine] |  |  |  |  |  | 30 | 130 | 1470 | EC50 [3, 12]: 45600 nM; EC50 [3, 13]: 45600 nM
5 | COc1ncnc2c1c(Br)cn2[C@@H]1O[C@H](CO)[C@@H](O)[C@H]1O [FH9528, 4-methoxy-5-bromo-(N7-β-D-ribofuranosyl)-pyrrolo[2,3-d]pyrimidine] | > 64000 | > 64000 | 40 | 190 | 24100 |  |  |  | 
6 | CN(C)c1ncnc2c1c(Br)cn2[C@@H]1O[C@H](CO)C[C@H]1O [FH8522, 4-dimethylamino-5-bromo-N7-(3′-deoxy-β-D-ribofuranosyl)-pyrrolo[2,3-d]pyrimidine] |  |  |  |  |  | 790 | 1880 | 20900 | EC50 [3, 12]: > 64000 nM; EC50 [3, 13]: > 64000 nM
7 | Nc1ncnc2c1c(-c1cccnc1)cn2[C@@H]1O[C@H](CO)[C@@H](O)[C@H]1O [FH4185, 4-amino-5-(pyrid-3-yl)-N7-(β-D-ribofuranosyl)-pyrrolo[2,3-d]pyrimidine] | > 64000 | > 64000 |  | > 64000 | 15400 |  |  |  | anti-trypanosomal activity against T. brucei, in words (T. brucei Squib 427): no discernible trypanocidal effects
8 | Cc1ccc(-c2cn([C@@H]3O[C@H](CO)C[C@H]3O)c3ncnc(N)c23)cc1 [FH8481, 4-amino-5-(4-methylphenyl)-N7-(3′-deoxy-β-D-ribofuranosyl)-pyrrolo[2,3-d]pyrimidine] |  |  |  |  |  | 18400 | 33200 | 460 | EC50 [3, 12]: 21000 nM; EC50 [3, 13]: 21000 nM
9 | CC(C)Oc1ncnc2c1c(Cl)cn2[C@@H]1O[C@H](CO)[C@@H](O)[C@H]1O [FH9531, 4-isopropoxy-5-chloro-N7-(β-D-ribfuranosyl)-pyrrolo[2,3-d]pyrimidine] | > 64000 | > 64000 | 100 | 90 | 22700 |  |  |  | 
10 | CCCOc1ncnc2c1c(Cl)cn2[C@@H]1O[C@H](CO)[C@@H](O)[C@H]1O [FH9532, 4-n-propoxy-5-chloro-N7-(β-D-ribfuranosyl)-pyrrolo[2,3-d]pyrimidine] | 2810 | 2810 | 80 | 80 | 1040 |  |  |  | 
11 | Nc1ncnc2c1c(-c1cnccn1)cn2[C@@H]1O[C@H](CO)[C@@H](O)[C@H]1O [FH3179, 4-amino-5-(pyrazine-2-yl)-N7-(β-D-ribofuranosyl)-pyrrolo[2,3-d]pyrimidine] | 550 | 550 |  | 1950 | 860 |  |  |  | cytotoxicity, in words (MRC-5 fibroblasts): submicromolar cytotoxicity
12 | Nc1ncnc2c1c(Br)cn2[C@@H]1O[C@H](CO)[C@@H](O)[C@H]1O [TH1003] |  |  |  |  | 390 |  |  |  | EC50 ([3]; MRC-5 EC50): 33300 nM; EC50 ([1]; Trypanosoma brucei, RHODESIENSE, Table 4, average of 2-6 independent determinations, read-out: T.b. rhod. EC50): 120 nM; EC50 (T. brucei Squib 427; Trypanosoma brucei, Table 4, average of 2-6 independent determinations, read-out: T.b. brucei EC50): 1240 nM
13 | CCCCOc1ncnc2c1c(Cl)cn2[C@@H]1O[C@H](CO)[C@@H](O)[C@H]1O [FH9530, 4-n-butoxy-5-chloro-N7-(β-D-ribofuranosyl)-pyrrolo[2,3-d]pyrimidine] | 1320 | 1320 | 40 | 70 | 450 |  |  |  | 
14 | Nc1ncnc2c1c(Br)cn2[C@@H]1O[C@H](CO)C[C@H]1O [FH7429_U, 4-amino-5-bromo-N7-(3′-deoxy-β-D-ribofuranosyl)-pyrrolo[2,3-d]pyrimidine] |  |  |  |  |  | < 0.5 | 2 | 20 | EC50 [3, 12]: 16100 nM; EC50 [3, 13]: 16100 nM
15 | CC(C)(C)[Si](C)(C)O[C@@H]1C[C@@H](CO)O[C@H]1n1cc(Br)c2c(N)ncnc21 [FH9552, 4-amino-5-bromo-N7-(2′-O-t-butyldimethylsilyl-3′-deoxy-β-D-ribofuranosyl)-pyrrolo[2,3-d]pyrimidine] |  |  |  |  |  |  |  |  | EC50 [3]: > 64000 nM; EC50 [1, 17]: 270 nM; EC50 (T. brucei Squib 427; [18]): 630 nM
16 | Cn1cnc(-c2cn([C@@H]3O[C@H](CO)[C@@H](O)[C@H]3O)c3ncnc(N)c23)c1 [FH3182] |  |  |  |  |  |  |  |  | EC50 (MRC-5 fibroblasts): 23400 nM; anti-trypanosomal activity against T. brucei, in words (T. brucei Squib 427): low μM activity; EC50 (T. brucei Squib 427; Table 4, average of 2-6 independent determinations, read-out: T.b. brucei EC50): 4760 nM; EC50 ([2]; Table 5, average of 2-4 independent replicates): 8340 nM
17 | Nc1ncnc2c1ccn2[C@@H]1O[C@H](CO)C[C@@H]1O [FH10650, 4-amino-N7-(2′-arabino-3′-deoxy-β-D-ribofuranosyl)-pyrrolo[2,3-d]pyrimidine] |  |  |  |  |  | 600 | 6620 | > 64000 | EC50 [3, 12]: > 64000 nM; EC50 [3, 13]: > 64000 nM
18 | CC(C)(C)[Si](C)(C)OC[C@@H]1C[C@@H](O)[C@H](n2cc(Br)c3c(N)ncnc32)O1 [FH8471, 4-Amino-5-Bromo-N7-(3′-Deoxy-5′-O-t-Butyl-Dimethylsilyl)-β-D-Ribofuranosyl-Pyrrolo[2,3-d]pyrimidine] |  |  |  |  |  |  |  |  | EC50 [3]: 5310 nM; EC50 [1, 17]: 80 nM; EC50 (T. brucei Squib 427; [18]): 1210 nM
19 | Nc1ncnc2c1c(-c1ccc(F)cn1)cn2[C@@H]1O[C@H](CO)[C@@H](O)[C@H]1O [MS1037, 4-amino-5-(5-fluoro-pyrid-2-yl)-N7-(β-D-ribofuranosyl)-pyrrolo[2,3-d]pyrimidine] | > 64000 | > 64000 | 1690 | 4770 | 31900 |  |  |  | 
20 | C=Cc1cn([C@@H]2O[C@H](CO)C[C@H]2O)c2ncnc(N)c12 [FH10659, 4-amino-5-vinyl-N7-(3′-deoxy-β-D-ribfuranosyl)-pyrrolo[2,3-d]pyrimidine] |  |  |  |  |  | 5 | 40 | 9440 | 
21 | Nc1ncnc2c1c(Cl)cn2[C@@H]1O[C@H](CO)C[C@H]1O [FH8470] |  |  |  |  |  | 0.4 | 2 | 50 | 
22 | O=C(Cn1ccnc1[N+](=O)[O-])NCc1ccccc1 [Benznidazole, reference compound] |  |  |  |  |  |  |  | 2400 | 
23 | COc1ncnc2c1c(Cl)cn2[C@@H]1O[C@H](CO)[C@@H](O)[C@H]1O [FH8446, 4-methoxy-5-chloro-N7-(β-D-ribfuranosyl)-pyrrolo[2,3-d]pyrimidine] | 48000 | 48000 | 40 | 160 | 12700 |  |  |  | 
24 | Nc1ncnc2c1c(I)cn2[C@@H]1O[C@H](CO)C[C@H]1O [FH8496, 4-amino-5-iodo-N7-(3′-deoxy-β-D-ribfuranosyl)-pyrrolo[2,3-d]pyrimidine] |  |  |  |  |  | 1 | 10 | 30 | 
25 | Nc1ncnc2c1c(F)cn2[C@@H]1O[C@H](CO)C[C@H]1O [FH8517, 4-amino-5-fluoro-N7-(3′-deoxy-β-D-ribofuranosyl)-pyrrolo[2,3-d]pyrimidine] |  |  |  |  |  | 0.3 | 2 | 1220 | EC50 [3, 12]: 3600 nM; EC50 [3, 13]: 3600 nM
26 | Nc1ncnc2c1c(-c1cccc(Cl)n1)cn2[C@@H]1O[C@H](CO)[C@@H](O)[C@H]1O [MS1034, 4-amino-5-(6-chloro-pyrid-2-yl)-N7-(β-D-ribofuranosyl)-pyrrolo[2,3-d]pyrimidine] | > 64000 | > 64000 | 620 | 1750 | > 64000 |  |  |  | 
27 | Nc1ncnc2c1c(-c1ccc(Cl)cc1Cl)cn2[C@@H]1O[C@H](CO)C[C@H]1O [FH9581, 4-amino-5-(2,4-dichlorophenyl)-N7-(3′-deoxy-β-D-ribofuranosyl)-pyrrolo[2,3-d]pyrimidine] |  |  |  |  |  | 7300 | 19600 | 500 | EC50 [3, 12]: 19600 nM; EC50 [3, 13]: 19600 nM
28 | Nc1ccnc2c1c(I)cn2[C@@H]1O[C@H](CO)[C@@H](O)[C@H]1O [FH5319, 3-iodo-4-amino-N1-(β-D-ribofuranosyl)-pyrrolo[2,3-b]pyridine] | > 64000 | > 64000 | > 64000 | 400 | 40 |  |  |  | 
